# Reference: US4839350A, “Cephalosporin compounds and the production thereof” (Meiji Seika Kaisha, Ltd., priority 1984, dated 1989)
# Structures can show the parent of a compound that is named as a salt.
# Assays:
# [1] = Recovery in urine after oral administration to mice (paper-disc assay); type: in vivo, mice of ICR-strain (male); settings: 0.5 mg per mouse, suspension in 0.2% CMC, urine to 4 hours, molar % as free carboxylic acid form, average of three mice, E. coli K-12 8236 bioassay, read-out: Rate of recovery of the test compound in urine
# Source text: The new cephalosporin compound of this invention as orally administered is easily absorbed through the intestines by a living animal and maintains its antibacterial activity to a substantial extent in the body of the animal until it is excreted in the urine of the animal, and this may be observed by determining the remaining amount of the cephalosporin compound of this invention which can be recovered in the urine without receiving a substantial degradation of the compound in vivo. Some tests were made to evaluate the amount of the cephalosporin compound of this invention which can be recovered as the antibacterially active compound from the urine after it was orally given to mice.
# To mice of ICR-strain (male, 4-weeks-aged, three in each group) was orally administered the compound under test identified below, at a dosage of the compound of 0.5 mg per mouse. The compound under test was given as a suspension of the test compound in a solution of 0.2% carboxymethylcellulose (CMC) in water. By the end of 4 hours after the administration of the test compound, all the amounts of the urine excreted by the treated mice were collected together, and the total quantity of the cephalosporin compound of this invention (as the free carboxylic acid form) in the urine was determined according to a paper-disc assay method using Escherichia coli K-12 8236 as the assaying strain. […]
# [2] = tested on: Proteus vulgaris GN 76; experiment: MIC by agar-dilution method, Proteus vulgaris GN 76; type: cell-based; settings: GN76, read-out: MIC.
# Source text: (§1) The compounds of this invention are all novel compounds.
# [3] = tested on: Proteus mirabilis GN 79; experiment: MIC by agar-dilution method, Proteus mirabilis GN 79; type: cell-based; settings: GN79, read-out: MIC.
# Source text: as §1
# [4] = tested on: Staphylococcus aureus 209P JC-1; experiment: MIC by agar-dilution method, Staphylococcus aureus 209P JC-1; type: cell-based; settings: read-out: MIC.
# Source text: as §1
# [5] = tested on: Pseudomonas aeruginosa MB 3833; experiment: MIC by agar-dilution method, Pseudomonas aeruginosa MB 3833; type: cell-based; settings: MB3833, read-out: MIC.
# Source text: as §1
# [6] = tested on: Salmonella typhimurium LT-2; experiment: MIC by agar-dilution method, Salmonella typhimurium LT-2; type: cell-based; settings: Salmonella enterica, read-out: MIC.
# Source text: as §1
# [7] = tested on: Klebsiella pneumoniae PCI 602; experiment: MIC by agar-dilution method, Klebsiella pneumoniae PCI 602; type: cell-based; settings: PCI602, read-out: MIC.
# Source text: as §1
# [8] = tested on: Staphylococcus aureus Smith; experiment: MIC by agar-dilution method, Staphylococcus aureus Smith; type: cell-based; settings: read-out: MIC.
# Source text: as §1
# [9] = tested on: Serratia marcescens No. 1; experiment: MIC by agar-dilution method, Serratia marcescens No. 1; type: cell-based; settings: read-out: MIC.
# Source text: as §1
# [10] = tested on: Proteus rettgeri GN 624; experiment: MIC by agar-dilution method, Proteus rettgeri GN 624; type: cell-based; settings: Providencia rettgeri, GN624, read-out: MIC.
# Source text: as §1
# [11] = tested on: Escherichia coli NIHJ JC-2; experiment: MIC by agar-dilution method, Escherichia coli NIHJ JC-2; type: cell-based; settings: NIHJJC2, read-out: MIC.
# Source text: as §1
dose excreted at 4 h [1] [%],MIC [2] [µg/mL],MIC [3] [µg/mL],MIC [4] [µg/mL],MIC [5] [µg/mL],MIC [6] [µg/mL],MIC [7] [µg/mL],MIC [8] [µg/mL],MIC [9] [µg/mL],MIC [10] [µg/mL],MIC [11] [µg/mL],SMILES
24,,,,,,,,,,,"CO/N=C(\C(=O)NC1C(=O)N2C(C(=O)OCOC(=O)C(C)(C)C)=C(/C=C\c3scnc3Cl)CSC12)c1csc(N)n1 (stereo not drawn) [Example 22, 7-[2-methoxyimino-2-(2-aminothiazol-4-yl)acetamido]-3-[2-(4-chlorothiazol-5-yl)vinyl]-3-cephem-4-carboxylic acid (syn-isomer, cis-isomer) pivaloyloxymethyl ester]"
,0.1,0.39,0.39,25,0.39,0.2,0.39,0.39,0.78,0.39,"CO/N=C(\C(=O)NC1C(=O)N2C(C(=O)O)=C(/C=C\c3cncs3)CSC12)c1csc(N)n1 (stereo not drawn) [Example 33, 7-[2-methoxyimino-2-(2-aminothiazol-4-yl)acetamido]-3-[2-(thiazol-5-yl)vinyl]-3-cephem-4-carboxylic acid sodium salt (syn-isomer, cis-isomer)]"
,1.56,0.78,0.2,100,3.13,3.13,0.2,1.56,1.56,3.13,"CO/N=C(\C(=O)NC1C(=O)N2C(C(=O)O)=C(/C=C\c3sc(Cl)nc3Cl)CSC12)c1csc(N)n1 (stereo not drawn) [Example 34, 7-[2-methoxyimino-2-(2-aminothiazol-4-yl)acetamido]-3-[2-(2,4-dichlorothiazol-5-yl)vinyl]-3-cephem-4-carboxylic acid sodium salt (syn-isomer, cis-isomer)]"
20,,,,,,,,,,,"CO/N=C(\C(=O)NC1C(=O)N2C(C(=O)OCOC(=O)C(C)(C)C)=C(/C=C\c3cncs3)CSC12)c1csc(N)n1 (stereo not drawn) [Example 38, 7-[2-methoxyimino-2-(2-aminothiazol-4-yl)acetamido]-3-[2-(thiazol-5-yl)vinyl]-3-cephem-4-carboxylic acid (syn-isomer, cis-isomer) pivaloyloxymethyl ester]"
